Measured values published in ChEMBL document CHEMBL5241112, “Insights into the recent progress in the medicinal chemistry of pyranopyrimidine analogs” (RSC Med Chem, 2022).
In brackets after ≈: the same amount, converted by molar mass.

What was measured:
[1] = system: Staphylococcus aureus; assay: Antibacterial activity against Staphylococcus aureus NCIM 2654 assessed as diameter of inhibition zone incubated for 24 hrs by agar well diffusion method; type: functional
[2] = Antioxidant activity assessed as DPPH radical scavenging activity at 12 ug incubated for 30 mins by spectrophotometric analysis; type: functional; conditions: dose 12.0 µg
[3] = Antioxidant activity assessed as H2O2 radical scavenging activity; type: functional
[4] = Antioxidant activity assessed as NO radical scavenging activity; type: functional
[5] = system: Staphylococcus aureus; assay: Antibacterial activity against Staphylococcus aureus assessed as bacterial growth inhibition by broth microdilution method; type: functional
[6] = system: Escherichia coli; assay: Antibacterial activity against Escherichia coli assessed as bacterial growth inhibition by broth microdilution method; type: functional
[7] = system: Klebsiella pneumoniae; assay: Antibacterial activity against Klebsiella pneumoniae assessed as bacterial growth inhibition by broth microdilution method; type: functional
[8] = system: Pseudomonas aeruginosa; assay: Antibacterial activity against Pseudomonas aeruginosa assessed as bacterial growth inhibition by broth microdilution method; type: functional
[9] = organism: Homo sapiens; assay: Anticoagulant activity in human plasma assessed as activated partial thromboplastin time at 1000 ug/ml incubated for 4 mins; type: functional; conditions: dose 1000 µg/ml
[10] = system: HeLa; assay: Anticancer activity against human HeLa cells assessed as reduction in cell viability incubated for 48 hrs by MTT assay; type: functional, cell-based
[11] = system: MCF7; assay: cells; conditions: Homo sapiens, MCF7, 48 h
[12] = system: MCF7; assay: cells; type: functional, cell-based; conditions: Homo sapiens, MCF7, 96 h
[13] = system: HCT-116; assay: Anticancer activity against human HCT-116 cells assessed as reduction in cell viability incubated for 96 hrs by MTT assay; type: functional, cell-based; conditions: HCT-116, 96 h
[14] = molecular target: Urease (Canavalia ensiformis, UniProt P07374); assay: Inhibition of jack bean urease by phenol red method
Sequence of Urease (P07374 whole entry): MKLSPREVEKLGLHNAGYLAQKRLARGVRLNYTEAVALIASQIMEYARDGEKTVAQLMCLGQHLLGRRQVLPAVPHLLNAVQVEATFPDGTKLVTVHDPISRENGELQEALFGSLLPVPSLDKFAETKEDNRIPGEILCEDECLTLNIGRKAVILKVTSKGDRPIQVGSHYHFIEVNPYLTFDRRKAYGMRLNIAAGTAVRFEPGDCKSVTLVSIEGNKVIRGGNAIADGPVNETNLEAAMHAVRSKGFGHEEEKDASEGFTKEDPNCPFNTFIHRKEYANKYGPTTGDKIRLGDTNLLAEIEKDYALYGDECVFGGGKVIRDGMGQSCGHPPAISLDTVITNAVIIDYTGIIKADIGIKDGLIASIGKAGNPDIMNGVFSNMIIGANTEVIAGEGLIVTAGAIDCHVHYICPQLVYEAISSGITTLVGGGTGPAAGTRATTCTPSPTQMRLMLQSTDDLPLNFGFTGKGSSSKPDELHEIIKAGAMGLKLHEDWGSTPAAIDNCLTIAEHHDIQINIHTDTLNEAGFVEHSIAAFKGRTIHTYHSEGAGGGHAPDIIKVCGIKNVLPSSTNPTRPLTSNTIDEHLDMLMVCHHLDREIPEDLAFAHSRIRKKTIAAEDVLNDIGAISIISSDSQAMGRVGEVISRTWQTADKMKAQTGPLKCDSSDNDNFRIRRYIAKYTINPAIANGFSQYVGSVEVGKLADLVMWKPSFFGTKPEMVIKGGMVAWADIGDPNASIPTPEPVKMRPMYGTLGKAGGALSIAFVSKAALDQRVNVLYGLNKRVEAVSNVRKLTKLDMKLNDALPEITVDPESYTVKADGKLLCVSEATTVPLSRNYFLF

[15] = organism: Capra hircus; assay: Inhibition of goat lens AR at 100 uM incubated for 10 mins in presence of NADPH by spectroscopic analysis
[16] = Antioxidant activity assessed as DPPH radical scavenging activity incubated for 20 mins by spectrophotometric analysis; type: functional; set-up: concentration or dose not given beside the values
[17] = Antioxidant activity assessed as hydroxyl radical scavenging activity incubated for 5 mins by spectrophotometric analysis; type: functional; set-up: concentration or dose not given beside the values
[18] = molecular target: Alpha-glucosidase (Saccharomyces cerevisiae S288c, UniProt P53341+P38158+P07265); assay: Inhibition of Saccharomyces cerevisiae alpha-glucosidase preincubated for 5 mins followed by PNP-GLUC substrate addition and measured after 20 mins by spectroscopic analysis; type: protein assay
[19] = molecular target: Albumin (Bos taurus, UniProt P02769); assay: […] bovine serum albumin denaturation incubated for 23 mins by UV-Visible spectrophotometry
Sequence of Albumin (P02769 whole entry): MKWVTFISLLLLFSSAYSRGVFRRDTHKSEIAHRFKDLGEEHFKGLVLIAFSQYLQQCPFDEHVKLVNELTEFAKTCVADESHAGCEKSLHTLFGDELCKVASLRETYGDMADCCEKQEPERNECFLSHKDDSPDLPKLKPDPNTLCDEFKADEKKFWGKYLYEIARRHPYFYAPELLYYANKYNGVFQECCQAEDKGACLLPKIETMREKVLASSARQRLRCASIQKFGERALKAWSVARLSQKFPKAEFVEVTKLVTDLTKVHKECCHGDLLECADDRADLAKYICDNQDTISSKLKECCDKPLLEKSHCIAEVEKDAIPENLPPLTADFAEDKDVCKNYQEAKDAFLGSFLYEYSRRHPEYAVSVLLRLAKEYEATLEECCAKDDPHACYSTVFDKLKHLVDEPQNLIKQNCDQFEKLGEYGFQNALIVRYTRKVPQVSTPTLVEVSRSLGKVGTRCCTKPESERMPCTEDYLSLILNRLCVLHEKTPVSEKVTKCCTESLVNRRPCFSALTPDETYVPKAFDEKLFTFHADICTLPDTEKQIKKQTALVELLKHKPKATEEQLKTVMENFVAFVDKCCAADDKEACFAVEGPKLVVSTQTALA

[20] = Inhibition of porcine pancreatic alpha-amylase preincubated for 10 mins followed by substrate starch addition and measured after 10 mins by colorimetric analysis; set-up: species or system Sus scrofa
[21] = system: Bacillus cereus; assay: Antimicrobial activity against Bacillus cereus ATCC14579 assessed as diameter of inhibition zone at 20 mg/ml incubated for 24 hrs by disk diffusion method; type: functional; conditions: read-out: DIZ
[22] = system: Staphylococcus aureus; assay: Antimicrobial activity against Staphylococcus aureus NCTC7447 assessed as diameter of inhibition zone at 20 mg/ml incubated for 24 hrs by disk diffusion method; type: functional; conditions: read-out: DIZ
[23] = system: Klebsiella pneumoniae; assay: Antimicrobial activity against Klebsiella pneumoniae UC57 assessed as diameter of inhibition zone at 20 mg/ml incubated for 24 hrs by disk diffusion method; type: functional; conditions: read-out: DIZ
[24] = system: Pseudomonas aeruginosa; assay: Antimicrobial activity against Pseudomonas aeruginosa ATCC 27853 assessed as diameter of inhibition zone at 20 mg/ml incubated for 24 hrs by disk diffusion method; type: functional; conditions: read-out: DIZ
[25] = system: Escherichia coli; assay: Antimicrobial activity against Escherichia coli ATCC 14169 assessed as diameter of inhibition zone at 20 mg/ml incubated for 24 hrs by disk diffusion method; type: functional; conditions: read-out: DIZ
[26] = system: Staphylococcus aureus; assay: Antibacterial activity against Staphylococcus aureus assessed as diameter of inhibition zone; type: functional
[27] = system: Bacillus subtilis; assay: Antibacterial activity against Bacillus subtilis assessed as diameter of inhibition zone; type: functional
[28] = system: Escherichia coli; assay: Antibacterial activity against Escherichia coli assessed as diameter of inhibition zone; type: functional
[29] = system: Salmonella typhimurium; assay: Antibacterial activity against Salmonella typhimurium assessed as diameter of inhibition zone; type: functional, Salmonella enterica subsp. enterica serovar Typhimurium

SMILES: Cc1n[nH]c2c1C(/C=C/c1ccccc1)c1c([nH]c(=O)[nH]c1=O)O2 (stereo unspecified)
- diameter of the inhibition zone (DIZ) [1]: 16 mm
- Activity [2]: 90.3%

SMILES: COc1cc(C2C(C#N)=C(N)Oc3cc(O)ccc32)ccc1O (stereo unspecified)
- IC50 [3]: 53.54 µg/mL (≈ 173 µM)
- IC50 [4]: 50.32 µg/mL (≈ 162 µM)

SMILES: CCO/C=N/C1=C(C#N)C(c2ccc(OC)cc2)c2c(n(C)c(=O)n(C)c2=O)O1 (stereo unspecified)
- MIC [5]: 6.25 µg/mL (≈ 15.8 µM)
- MIC [6]: 6.25 µg/mL (≈ 15.8 µM)
- MIC [7]: 6.25 µg/mL (≈ 15.8 µM)
- MIC [8]: 6.25 µg/mL (≈ 15.8 µM)

SMILES: COc1ccc2c(-c3nc4c5c(ncn4n3)OC3=C(C(=O)CC(C)(C)C3)C5c3ccccc3)cc(=O)oc2c1 (stereo unspecified)
- Time [9]: 55.1 s

SMILES: Cc1n[nH]c2c1C(c1ccncc1)c1c([nH]c(=O)[nH]c1=O)O2 (stereo unspecified)
- Activity [2]: 59%

SMILES: CC1(C)CC(=O)C2=C(C1)Oc1ncn(-c3cccc(Cl)c3)c(=N)c1C2c1ccccc1 (stereo unspecified)
- Time [9]: 54.8 s

SMILES: O=C1Nc2c(c(=O)oc3ccccc23)C(c2cccc(O)c2)N1 (stereo unspecified)
- IC50 [10]: 90 µM
- IC50 [11]: 38 µM

SMILES: Cc1nc(O)c2c(n1)Oc1[nH]c(=O)[nH]c(=O)c1C2c1cccs1 (stereo unspecified)
- IC50 [12]: 4.48 µM
- IC50 [13]: 2.76 µM

SMILES: Cc1n[nH]c2c1C(c1cccc([N+](=O)[O-])c1)c1c([nH]c(=O)[nH]c1=O)O2 (stereo unspecified)
- diameter of the inhibition zone (DIZ) [1]: 12 mm
- Activity [2]: 90.3%

SMILES: N#CC1=C(N)Oc2[nH]c(=O)[nH]c(=O)c2C1c1ccc(Cl)cc1Cl (stereo unspecified)
- IC50 [14]: 19.5 µM

SMILES: Cc1nc2c3c(ncn2n1)OC1=C(C(=O)CC(C)(C)C1)C3c1ccccc1 (stereo unspecified)
- Time [9]: 60.1 s

SMILES: Cc1n[nH]c2c1C(c1ccccc1O)c1c([nH]c(=O)[nH]c1=O)O2 (stereo unspecified)
- diameter of the inhibition zone (DIZ) [1]: 14 mm

SMILES: Nc1ncnc2c1C(c1ccc(Br)cc1)c1ccc(O)cc1O2 (stereo unspecified)
- IC50 [4]: 50.32 µg/mL (≈ 136 µM)

SMILES: CC1(C)CC(=O)C2=C(C1)Oc1ncn(-c3cccc4ccccc34)c(=N)c1C2c1ccccc1 (stereo unspecified)
- Time [9]: 63.2 s

SMILES: O=c1[nH]c2c(c(=O)[nH]1)Oc1c(c(=O)oc3ccccc13)C2c1ccccc1Cl (stereo unspecified)
- inhibition [15]: 46%
- Activity [16]: 72.4%
- Activity [17]: 67.2%

SMILES: Nc1nn(-c2cc([N+](=O)[O-])ccc2[N+](=O)[O-])c2c1Oc1[nH]c(=O)[nH]c(=O)c1C2c1cccs1 (stereo unspecified)
- IC50 [12]: 3.17 µM
- IC50 [13]: 2.8 µM

SMILES: COc1ccc(C2C(C(=O)N3CCCCC3)=C(c3ccccc3O)Oc3[nH]c(=S)[nH]c(=O)c32)cc1 (stereo unspecified)
- IC50 [18]: 5223 µM
- IC50 [19]: 18.1 µM
- IC50 [20]: 16.1 µM

SMILES: COc1ccc(C2c3[nH]c(=O)[nH]c(=O)c3Oc3c2c(=O)oc2ccccc32)cc1 (stereo unspecified)
- inhibition [15]: 44%
- Activity [16]: 59.1%
- Activity [17]: 54.3%

SMILES: O=c1[nH]c2c(c(=O)[nH]1)C(c1cccs1)c1[nH]c(=S)[nH]c(=S)c1O2 (stereo unspecified)
- IC50 [12]: 4.95 µM
- IC50 [13]: 2.76 µM

SMILES: CC1(C)CC(=O)C2=C(C1)Oc1ncn3ncnc3c1C2c1ccccc1 (stereo unspecified)
- Time [9]: 59.4 s

SMILES: Cc1n[nH]c2c1C(c1cc([N+](=O)[O-])ccc1O)c1c([nH]c(=O)[nH]c1=O)O2 (stereo unspecified)
- Activity [2]: 89.1%

SMILES: Nc1nc(S)nc2c1Oc1[nH]c(=O)[nH]c(=O)c1C2c1cccs1 (stereo unspecified)
- IC50 [12]: 2.65 µM
- IC50 [13]: 2.76 µM

SMILES: O=C1Nc2c(c(=O)oc3ccccc23)C(c2ccc(Br)cc2)N1 (stereo unspecified)
- IC50 [10]: 59 µM
- IC50 [11]: 38 µM

SMILES: COc1ccc(C2C(C#N)=C(N)Oc3cc(O)ccc32)cc1 (stereo unspecified)
- IC50 [3]: 53.54 µg/mL (≈ 182 µM)

SMILES: COc1ccc(C2NC(=O)Nc3c2c(=O)oc2ccccc32)cc1OC (stereo unspecified)
- IC50 [10]: 38 µM
- IC50 [11]: 38 µM

SMILES: CC1(C)CC(=O)C2=C(C1)Oc1ncn(-c3ccccc3)c(=N)c1C2c1ccccc1 (stereo unspecified)
- Time [9]: 57.1 s

SMILES: CC1(C)CC(=O)C2=C(C1)Oc1ncn3nc(CC#N)nc3c1C2c1ccccc1 (stereo unspecified)
- Time [9]: 63.4 s

SMILES: N#CC1=C(N)Oc2[nH]c(=O)[nH]c(=O)c2C1c1ccc(Br)cc1 (stereo unspecified)
- zone of inhibition at 20000 µg/mL [21]: 4 mm
- zone of inhibition at 20000 µg/mL [22]: 12 mm
- zone of inhibition at 20000 µg/mL [23]: 3 mm
- zone of inhibition at 20000 µg/mL [24]: 4 mm
- zone of inhibition at 20000 µg/mL [25]: 6 mm
- diameter of the inhibition zone (DIZ) [26]: 18 mm
- diameter of the inhibition zone (DIZ) [27]: 14 mm
- diameter of the inhibition zone (DIZ) [28]: 12 mm
- diameter of the inhibition zone (DIZ) [29]: 16 mm
- IC50 [14]: 51.3 µM
